In article PMC6013238, “Development of novel NEMO-binding domain mimetics for inhibiting IKK/NF-κB activation” (PLoS Biology, 2018):
Several values for one entry are separate records, joined by “and”; a condition that tells them apart may be missing. Equal entries are not always repeated.

How the values were obtained:
mdx mice = test: Chronic treatment of mdx mice, CD68 immunostaining (macrophages); assay type: in vivo, mouse; conditions: for CD68+ cells, number of cells per myofiber: SR12343 30 mg/kg 4 wk, single measures and ave, 30 mg/kg
Procedure: To determine whether SR12343 and SR12460 improve muscle pathology, TA muscle was stained with hematoxylin–eosin to assess inflammatory infiltration, necrosis, central nucleation, and fibrosis. […] In addition, Masson trichrome stain was conducted to further measure muscle fibrosis. Chronic treatment with SR12343 reduced muscle fibrosis (blue) in diaphragm and TA muscle tissues in comparison to control group (Fig 8A & 8B). To further quantitate the extent of inflammation in mdx muscle tissues, diaphragm and TA muscle were immunostained for cluster of differentiation 68 (CD68), a macrophage marker. Treatment with SR12343 reduced the number of CD68^+ cells by almost 50% per myofiber in both diaphragm and TA tissues (Fig 8A & 8B). […] To quantify the average fiber size in an unbiased way, TA muscle was stained with laminin to outline myofibers, and Feret diameter of all myocytes was quantitated in a whole muscle section.
Fig 8 Chronic treatment with NBD mimetics reduces muscle fibrosis by decreasing macrophage infiltration in mdx mice. (A, B) Trichrome and CD68 staining of (A) diaphragm and (B) TA muscle from 7-wk-old, SR12343-treated or -untreated mdx mice. CD68 (red): marker of tissue macrophage; utrophin (green): stain for myofiber; DAPI (blue): nuclei. Trichrome images were taken at the magnification of 4× for TA and 10× for diaphragm. IHC images were taken at 10× for TA and 20× for diaphragm. Representative images were shown for each treatment group. Data were shown as mean +/− SEM. *P < 0.05; **P < 0.01; ***P < 0.001. Underlying data can be found in S1 Data. CD68, cluster of differentiation 68; IHC, immunohistochemistry; NBD, NEMO-binding domain; NEMO, NF-κB essential modulator; TA, tibialis anterior.
The frozen tissue sections were fixed with 4% paraformaldehyde for 1 h and incubated with 1% BSA for blocking. The primary antibodies CD68 (Abcam, Cambridge, MA) and utrophin (Santa Cruz) were applied at 1:200 for 2 h. The secondary antibodies Alexa Fluor 594 and Alexa Fluor 488 were then applied at 1:400 for 1 h. DAPI (1;1000) solution was used to stain the cell nucleus. All the processes were performed at room temperature.

JNK/p38MAPK signaling = test: Western blot of JNK and p38MAPK phosphorylation in Raw 264.7 cells; assay type: cell-based, mouse; conditions: 150 μM; TNF-α or LPS stimulation
Procedure: To determine whether the novel NBD mimetics target the NEMO-IKKβ interaction in vivo, co-immunoprecipitations were performed using extracts from Raw 264.7 macrophages (Fig 5A). […] No interaction between NEMO and TNF receptor-associated factor 2 (TRAF2) or IκBα was observed under these conditions. […] The levels of phosphorylated IKK complex, IκBα, and p65 in response to TNF-α and LPS were all reduced by SR12343 (Fig 5D & 5E). […] However, there were no changes in the levels of phospho-c-Jun N-terminal kinase (p-JNK), p-p38MAPK, total JNK, and p38MAPK by treatment with SR12343 (150 μM) in response to TNF-α or LPS stimulation (Fig 5G & 5H). […]
(A) Co-IP analysis detecting the IKKβ/NEMO interaction. […] NEMO-binding products were then analyzed for levels of IKKβ, IKKα, TRAF2, and IκBα (negative control), and levels of NEMO were used as a loading control (left panel). […] The levels of IKKβ-FLAG binding to GST-NEMO were determined by western blot analysis with GST-NEMO used as a loading control. […] Cell lysates were analyzed for activity of the IKK/NF-κB signaling pathway including activation of IKK complex, IκBα, and p65. […] Cell lysates were harvested and analyzed for activation of noncanonical NF-κB signaling, the processing of p100 to p52. […]

## O=C(CNc1ccc(Cl)cn1)NCCc1cccc(Br)c1 [SR12343]
Mdx mice; Fig 8A, diaphragm muscle
  CD68+ cells, number of cells per myofiber: 1.156 and 1.07 and 1.196
Mdx mice; Fig 8A, diaphragm muscle, mean
  CD68+ cells, number of cells per myofiber: 1.14
Mdx mice; Fig 8B, TA muscle
  CD68+ cells, number of cells per myofiber: 0.646 and 0.5862 and 0.6154
Mdx mice; Fig 8B, TA muscle, mean
  CD68+ cells, number of cells per myofiber: 0.6159
Mdx mice; diaphragm and TA tissues
  Reduction of number of CD68+ cells per myofiber: ~50%
JNK/p38MAPK signaling
  Levels of p-JNK, p-p38MAPK, total JNK and p38MAPK: no changes
